Test results reported in patent US5817692A, “Endoperoxides useful as antiparasitic agents” (priority 1996, dated 1998).
Read-outs that look alike come from different tables or passages of the source.

Key:
Type in all cases: cell-based
L929 cells = experiment: cytotoxicity to L929 cells, MTT assay (viability and replication); design: Toxicity, Mean: unit not given here; conditions: L929 cells; for Toxicity, Mean: MTT; for inhibition at 0.1 µM / inhibition at 1 µM / inhibition at 10 µM / inhibition at 50 µM: Mus musculus, read-out: Toxicity, % of control (inhibition)
Method: Toxoplasma gondii is the causative agent of cerebral toxoplasmic encephalitis, an AIDS-related opportunistic infection. The biological activity of the endoperoxide JHU 2886 of the present invention was measured against Toxoplasma gondii cultured in L929 cells.
More specifically, the cytotoxicity of synthetic organic endoperoxide JHU 2886 was tested in L929 cells by measuring the viability and replication of exposed cells. The cytotoxicity of the compound to the cultured cells was measured using the MTT assay (Promega kit), according to the procedure of Carmichael et al. (18). MTT is an abbreviation for [3-(4,5-dimethylthiazol-2-yl)-2,5-dephenyltetrazolium bromide].
This compound is referred to as JHU 2886 in Table 1. In this experiment atovaquone and artemisinin were used as positive controls. Atovaquone is a broad-spectrum anti-infective drug having antimalarial and antitoxoplasmosis activity (19).
^1 The cytotoxicity of each compound for the cultured cells was
measured using the MTT assay (Promega kit) and inhibition of the […]

Toxoplasma gondii = experiment: inhibition of intracellular replication of T. gondii in infected L929 cells, uracil incorporation assay; design: Activity, Mean: unit not given here; conditions: for Activity, Mean: uracil incorporation; for inhibition at 0.1 µM / inhibition at 1 µM / inhibition at 10 µM / inhibition at 50 µM: Toxoplasma gondii, L929, read-out: Activity, % of control (inhibition)
Method: Toxoplasma gondii is the causative agent of cerebral toxoplasmic encephalitis, an AIDS-related opportunistic infection. The biological activity of the endoperoxide JHU 2886 of the present invention was measured against Toxoplasma gondii cultured in L929 cells. The inhibitory activity of the synthetic organic endoperoxide was tested by measuring the intracellular replication of T. gondii in infected L929 cells. The inhibition of the intracellular replication of T. gondii was determined using the uracil incorporation assay (20). […] This compound is referred to as JHU 2886 in Table 1. In this experiment atovaquone and artemisinin were used as positive controls. Atovaquone is a broad-spectrum anti-infective drug having antimalarial and antitoxoplasmosis activity (19). | measured using the MTT assay (Promega kit) and inhibition of the | intracellular replication of T. gondii was determined using the uracil | incorporation assay.

Plasmodium falciparum = experiment: antimalarial activity, tritiated-hypoxanthine incorporation assay in human red blood cells; conditions: Erythrocyte, read-out: IC50 (inhibition of 50% of the replication of Plasmodium falciparum)
Method: (§1) The protozoan Plasmodium falciparum is a causative agent of malaria, the single most critical infectious disease of mankind. The antimalarial activity of the endoperoxides was determined according to the method of Desjardins et al. (16) as modified by Milhous et al. (17). Briefly, the antimalarial activity of the endoperoxides was tested in a tritiated-hypoxanthine incorporation assay by determining the concentration of the test compound needed to inhibit 50% of the replication of Plasmodium falciparum (IC50) in human red blood cells.
It is particularly noted that JHU 2886 has an excellent therapeutic index (ratio of activity to toxicity). At 1 μM, JHU 2886 has a therapeutic index of 70/0, whereas at the same concentration artimisinin has a therapeutic index of 76/10 (7.6), and atovaquone has a therapeutic index of only 95/17 (5.6). […] The first two compounds are known while the following five are being disclosed for the first time. […] Compounds of this formula wherein Ar is p-FCH2 Ph or p-HOCH2 Ph and X is CH2 are also expected to be particularly useful. […]

P. falciparum NF54 = experiment: antimalarial activity, P. falciparum NF54 parasites in vitro; conditions: Plasmodium falciparum; P. falciparum NF54 parasites in vitro; read-out: Antimalarial Activity IC50
Method: as §1
Tables 4 and 5 show the structures and antimalarial activities of unsaturated and saturated bicyclic [2.2.2] endoperoxides of the invention. Compounds of this formula wherein R and R' are identical are particularly preferred. It is expected that compounds wherein R and R' are selected from the groups [drawing 33] will be especially useful. […]

C[C@@H]1CC[C@H]2[C@@H](C)C(=O)O[C@@H]3O[C@@]4(C)CC[C@@H]1[C@]32OO4 [Artemisinin]
Toxicity, Score (L929 cells; 24 hours, dose 0.1 μM): 1 (≤20%) | Toxicity, Mean (L929 cells; 24 hours, dose 0.1 μM): 0.103 | Toxicity, Score (L929 cells; 24 hours, dose 1.0 μM): 1 (≤20%) | Toxicity, Mean (L929 cells; 24 hours, dose 1.0 μM): 0.101 | Toxicity, Score (L929 cells; 24 hours, dose 10.0 μM): 1 (≤20%) | Toxicity, Mean (L929 cells; 24 hours, dose 10.0 μM): 0.104 | Toxicity, Score (L929 cells; 24 hours, dose 50.0 μM): 1 (≤20%) | Toxicity, Mean (L929 cells; 24 hours, dose 50.0 μM): 0.110 | Toxicity, Mean (L929 cells; 48 hours, dose 0.1 μM): 0.213 | Toxicity, Score (L929 cells; 48 hours, dose 1.0 μM): 1 (≤20%) | Toxicity, Mean (L929 cells; 48 hours, dose 1.0 μM): 0.205 | Toxicity, Score (L929 cells; 48 hours, dose 10.0 μM): 1 (≤20%) | Toxicity, Mean (L929 cells; 48 hours, dose 10.0 μM): 0.195 | Toxicity, Score (L929 cells; 48 hours, dose 50.0 μM): 1 (≤20%) | Toxicity, Mean (L929 cells; 48 hours, dose 50.0 μM): 0.193 | Toxicity, Mean (L929 cells; 72 hours, dose 0.1 μM): 0.460 | Toxicity, Score (L929 cells; 72 hours, dose 1.0 μM): 1 (≤20%) | Toxicity, Mean (L929 cells; 72 hours, dose 1.0 μM): 0.394 | Toxicity, Score (L929 cells; 72 hours, dose 10.0 μM): 1 (≤20%) | Toxicity, Mean (L929 cells; 72 hours, dose 10.0 μM): 0.354 | Toxicity, Score (L929 cells; 72 hours, dose 50.0 μM): 2 (>20%-≤40%) | Toxicity, Mean (L929 cells; 72 hours, dose 50.0 μM): 0.348 | inhibition at 0.1 µM (L929 cells; 24 hours, dose 0.1 μM): 8.56% | inhibition at 1 µM (L929 cells; 24 hours, dose 1.0 μM): 10.3% | inhibition at 10 µM (L929 cells; 24 hours, dose 10.0 μM): 7.67% | inhibition at 50 µM (L929 cells; 24 hours, dose 50.0 μM): 2.36% | inhibition at 0.1 µM (L929 cells; 48 hours, dose 0.1 μM): 0% | inhibition at 1 µM (L929 cells; 48 hours, dose 1.0 μM): 3.75% | inhibition at 10 µM (L929 cells; 48 hours, dose 10.0 μM): 8.44% | inhibition at 50 µM (L929 cells; 48 hours, dose 50.0 μM): 9.53% | inhibition at 0.1 µM (L929 cells; 72 hours, dose 0.1 μM): 0% | inhibition at 1 µM (L929 cells; 72 hours, dose 1.0 μM): 9.97% | inhibition at 10 µM (L929 cells; 72 hours, dose 10.0 μM): 19.2% | inhibition at 50 µM (L929 cells; 72 hours, dose 50.0 μM): 20.6% | therapeutic index (ratio of activity to toxicity), quotient (Toxoplasma gondii; 1 μM, T. gondii activity / L929 toxicity): 7.6 | Activity, Score (Toxoplasma gondii; 24 hours, dose 0.1 μM): 2 (>20%-≤40%) | Activity, Mean (Toxoplasma gondii; 24 hours, dose 0.1 μM): 10106 | Activity, Score (Toxoplasma gondii; 24 hours, dose 1.0 μM): 4 (>70%-≤90%) | Activity, Mean (Toxoplasma gondii; 24 hours, dose 1.0 μM): 3467 | Activity, Score (Toxoplasma gondii; 24 hours, dose 10.0 μM): 4 (>70%-≤90%) | Activity, Mean (Toxoplasma gondii; 24 hours, dose 10.0 μM): 3470 | Activity, Score (Toxoplasma gondii; 24 hours, dose 50.0 μM): 4 (>70%-≤90%) | Activity, Mean (Toxoplasma gondii; 24 hours, dose 50.0 μM): 33322 | Activity, Score (Toxoplasma gondii; 48 hours, dose 0.1 μM): 1 (≤20%) | Activity, Mean (Toxoplasma gondii; 48 hours, dose 0.1 μM): 15440 | Activity, Score (Toxoplasma gondii; 48 hours, dose 1.0 μM): 3 (>40%-≤70%) | Activity, Mean (Toxoplasma gondii; 48 hours, dose 1.0 μM): 6101 | Activity, Score (Toxoplasma gondii; 48 hours, dose 10.0 μM): 4 (>70%-≤90%) | Activity, Mean (Toxoplasma gondii; 48 hours, dose 10.0 μM): 4225 | Activity, Score (Toxoplasma gondii; 48 hours, dose 50.0 μM): 4 (>70%-≤90%) | Activity, Mean (Toxoplasma gondii; 48 hours, dose 50.0 μM): 4167 | Activity, Score (Toxoplasma gondii; 72 hours, dose 0.1 μM): 0 | Activity, Mean (Toxoplasma gondii; 72 hours, dose 0.1 μM): 8253 | Activity, Score (Toxoplasma gondii; 72 hours, dose 1.0 μM): 4 (>70%-≤90%) | Activity, Mean (Toxoplasma gondii; 72 hours, dose 1.0 μM): 1976 | Activity, Score (Toxoplasma gondii; 72 hours, dose 10.0 μM): 4 (>70%-≤90%) | Activity, Mean (Toxoplasma gondii; 72 hours, dose 10.0 μM): 783 | Activity, Score (Toxoplasma gondii; 72 hours, dose 50.0 μM): 4 (>70%-≤90%) | Activity, Mean (Toxoplasma gondii; 72 hours, dose 50.0 μM): 813 | inhibition at 0.1 µM (Toxoplasma gondii; 24 hours, dose 0.1 μM): 29.6% | inhibition at 1 µM (Toxoplasma gondii; 24 hours, dose 1.0 μM): 75.8% | inhibition at 10 µM (Toxoplasma gondii; 24 hours, dose 10.0 μM): 75.8% | inhibition at 50 µM (Toxoplasma gondii; 24 hours, dose 50.0 μM): 76.8% | inhibition at 0.1 µM (Toxoplasma gondii; 48 hours, dose 0.1 μM): 10.4% | inhibition at 1 µM (Toxoplasma gondii; 48 hours, dose 1.0 μM): 64.6% | inhibition at 10 µM (Toxoplasma gondii; 48 hours, dose 10.0 μM): 75.5% | inhibition at 50 µM (Toxoplasma gondii; 48 hours, dose 50.0 μM): 75.8% | inhibition at 0.1 µM (Toxoplasma gondii; 72 hours, dose 0.1 μM): -14.1% | inhibition at 1 µM (Toxoplasma gondii; 72 hours, dose 1.0 μM): 72.7% | inhibition at 10 µM (Toxoplasma gondii; 72 hours, dose 10.0 μM): 89.2% | inhibition at 50 µM (Toxoplasma gondii; 72 hours, dose 50.0 μM): 88.8% | IC50 (Plasmodium falciparum): 11 nM | IC50 (P. falciparum NF54): 11 nM
